{"source": "patent US8871252B2", "about": "“pH-responsive liposome” (Nanotheta Co, Ltd., priority 2009, dated 2014)", "key": {"[1]": {"test": "pH change behavior of citric acid-loaded liposomes added to aqueous sodium hydroxide", "assay_type": "physicochemical", "details": "upon addition to 4 mL of 300 μM aqueous sodium hydroxide (pH 10.5)", "description": "Each lipid mixture (20 mg) was hydrated in 20 mM citric acid (pH 2.2), and the dispersion was subjected to extrusion (final pore size: 0.22 μm) to prepare liposomes having a particle size of 200 to 300 nm. When required, pH change behavior was measured with a pH meter immediately after addition of the liposome dispersion ([lipid]=55 mg/mL, 10 μL) or citric acid (20 mM, 10 μL) to 4 mL of 300 μM aqueous sodium hydroxide (pH 10.5)."}, "[2]": {"test": "Release behavior of citric acid from liposomes in a weakly basic environment (pH meter)", "assay_type": "physicochemical", "details": "after pH of the mixture changed to 7.5 to 8.5 with sodium hydroxide", "description": "The release behavior of citric acid from liposomes was studied in a weakly basic environment. First, to an aqueous liquid of citric acid having liposomes dispersed therein ([lipid]=250 μM, 4 mL) or an aqueous solution of citric acid (30 mM, pH 2.2, 4 mL), 2M aqueous sodium hydroxide (170 μL) was added to adjust the pH of the mixture to 6.5. Then, 300 mM aqueous sodium hydroxide (60 μL) was added to change the pH of the mixture to 7.5 to 8.5. The subsequent pH change behavior was monitored over time with a pH meter."}}}
{"compound": "O=C(O)CC(O)(CC(=O)O)C(=O)O", "note": "[citric acid]", "values": [{"measurement": "pH reached (sudden decrease)", "setting": "[1]", "value": 7.0}, {"measurement": "nearly constant pH reached", "setting": "[2]", "value": "~7"}]}
